Source: ChEMBL document CHEMBL3509396, “FDA drug approval package for Aspirin (clinical pharmacology review, Ref:ID 3227827)”

Assays:
[1] = (§1) Mean terminal elimination half-life of acetylsalicylic acid concentration after administration of Genuine Bayer Aspirin Tablet at fasting condition in human; format: ADME, organism-based; set-up: dietary status Fasting, dose 650 mg, dosed compound id 2.46814e+06, dosed compound name Acetylsalicylic acid, regimen Single, route oral, sampling time 24 h, study doses 325/650 mg; details: plasma, po, 650 mg
[2] = (§2) Mean Cmax of acetylsalicylic acid concentration after administration of Genuine Bayer Aspirin Tablet at fasting condition in human; format: ADME, organism-based; set-up: dietary status Fasting, dose 650 mg, dosed compound id 2.46814e+06, dosed compound name Acetylsalicylic acid, regimen Single, route oral, sampling time 24 h, study doses 325/650 mg; details: plasma, po, 650 mg
[3] = (§3) Mean Tmax of acetylsalicylic acid concentration after administration of Genuine Bayer Aspirin Tablet at fasting condition in human; format: ADME, organism-based; set-up: dietary status Fasting, dose 325 mg, dosed compound id 2.46814e+06, dosed compound name Acetylsalicylic acid, regimen Single, route oral, sampling time 24 h, study doses 325/650 mg; details: plasma, po, 325 mg
[4] = as §1; format: ADME, organism-based; set-up: dietary status Fasting, dose 325 mg, dosed compound id 2.46814e+06, dosed compound name Acetylsalicylic acid, regimen Single, route oral, sampling time 24 h, study doses 325/650 mg; details: plasma, po, 325 mg
[5] = (§4) Mean Tlag of acetylsalicylic acid concentration after administration of Genuine Bayer Aspirin Tablet at fasting condition in human; format: ADME, organism-based, Plasma; set-up: dietary status Fasting, dose 325 mg, dosed compound id 2.46814e+06, dosed compound name Acetylsalicylic acid, regimen Single, route oral, sampling time 24 h, study doses 325/650 mg; details: in vivo, po
[6] = (§5) Mean AUC0-t of acetylsalicylic acid concentration after administration of Genuine Bayer Aspirin Tablet at fasting condition in human; format: ADME, organism-based; set-up: dietary status Fasting, dose 650 mg, dosed compound id 2.46814e+06, dosed compound name Acetylsalicylic acid, regimen Single, route oral, sampling time 24 h, study doses 325/650 mg; details: plasma, po, 650 mg
[7] = as §5; format: ADME, organism-based; set-up: dietary status Fasting, dose 325 mg, dosed compound id 2.46814e+06, dosed compound name Acetylsalicylic acid, regimen Single, route oral, sampling time 24 h, study doses 325/650 mg; details: plasma, po, 325 mg
[8] = (§6) Mean AUCinfinity of acetylsalicylic acid concentration after administration of Genuine Bayer Aspirin Tablet at fasting condition in human; format: ADME, organism-based; set-up: time infinity, dietary status Fasting, dose 325 mg, dosed compound id 2.46814e+06, dosed compound name Acetylsalicylic acid, regimen Single, route oral, sampling time 24 h, study doses 325/650 mg; details: plasma, po, 325 mg, read-out: AUCinfinity (converted)
[9] = as §4; format: ADME, organism-based, Plasma; set-up: dietary status Fasting, dose 650 mg, dosed compound id 2.46814e+06, dosed compound name Acetylsalicylic acid, regimen Single, route oral, sampling time 24 h, study doses 325/650 mg; details: in vivo, po
[10] = as §6; format: ADME, organism-based; set-up: time infinity, dietary status Fasting, dose 650 mg, dosed compound id 2.46814e+06, dosed compound name Acetylsalicylic acid, regimen Single, route oral, sampling time 24 h, study doses 325/650 mg; details: plasma, po, 650 mg, read-out: AUCinfinity (converted)
[11] = as §2; format: ADME, organism-based; set-up: dietary status Fasting, dose 325 mg, dosed compound id 2.46814e+06, dosed compound name Acetylsalicylic acid, regimen Single, route oral, sampling time 24 h, study doses 325/650 mg; details: plasma, po, 325 mg
[12] = as §3; format: ADME, organism-based; set-up: dietary status Fasting, dose 650 mg, dosed compound id 2.46814e+06, dosed compound name Acetylsalicylic acid, regimen Single, route oral, sampling time 24 h, study doses 325/650 mg; details: plasma, po, 650 mg

## CC(=O)Oc1ccccc1C(=O)O [ASPIRIN]
[1]
  half-life: 55 min
[2]
  Cmax: 5100 ng/mL
[3]
  Tmax: 68 min
[4]
  half-life: 31 min
[5]
  Tlag: 2 min
[6]
  AUC(0-t): 6880 ng·h/mL
[7]
  AUC(0-t): 3520 ng·h/mL
[8]
  AUC(0-inf): 3830 ng·h/mL
[9]
  Tlag: 1 min
[10]
  AUC(0-inf): 7280 ng·h/mL
[11]
  Cmax: 2590 ng/mL
[12]
  Tmax: 40 min
